The values that follow are results of earlier work, collected in patent EP2743282B1, “Melamine-aldehyde-condensation product and method obtaining the same” (Borealis Agrolinz Melamine GmbH, priority 2012, dated 2014).

≈ marks a conversion by molar mass, not a printed value.

The conditions of this data set: in water at 20 °C.

As to `CN(C)c1nc(N)nc(N)n1` [N,N-dimethylmelamine], the water solubility is 1.2 mg/mL (≈ 7.78 mM).

Turning to `CN(C)c1nc(N)nc(N(C)C)n1` [N,N,N',N'-tetramethylmelamine], the water solubility is 0.4 mg/mL (≈ 2.2 mM).

With `CNc1nc(NC)nc(N(C)C)n1` [N,N,N',N"-tetramethylmelamine, reference compound], the water solubility is 49 mg/mL (≈ 269 mM).
